Molecular target: T1, human H4 receptor (Homo sapiens, UniProt Q9H3N8)
T1 construct: expressed in transfected cells; host or cells: HEKf cells infected with baculovirus
Experiment: H4 Antagonist Functional cAMP Gi Assay
Format: cell-based
Details: HEKf cells expressing human H4 receptor; functional antagonist pKb by Cheng-Prusoff vs histamine; read-out: Human H4 cAMP fpKb (converted)
Method: HEKf cells were infected overnight using baculovirus expressing the human H4 receptor, then centrifuged at 1,200 rpm for 5 min, frozen in cell freezing medium (Sigma) and stored at −150° C. On the day of assay, the cells were thawed and resuspended in HBSS with 500 nM IBMX to achieve a density of 1,500 cells/well. H4 ligands were prepared in DMSO and stamped by LabCyte ECHO acoustic dispensing at 25 nL in low volume plates. 10 μL/well cells were plated in the presence of 1 μM forskolin, subjected to centrifugation at 1,200 rpm for 1 min and incubated for 30 min prior to addition of Cisbio cAMP detection reagents to a total volume 20 μL/well. […] Following detection reagent addition and shaking at room temperature for 60 min, cAMP accumulation was measured using HTRF on a PheraStar plate reader. EC50 values were generated using a 4-parameter logistical fit equation to quantify agonist potencies. Functional antagonist affinity values were generated using the Cheng-Prusoff equation to calculate a pKb value using the antagonist assay data.

T1 sequence (Q9H3N8 whole entry): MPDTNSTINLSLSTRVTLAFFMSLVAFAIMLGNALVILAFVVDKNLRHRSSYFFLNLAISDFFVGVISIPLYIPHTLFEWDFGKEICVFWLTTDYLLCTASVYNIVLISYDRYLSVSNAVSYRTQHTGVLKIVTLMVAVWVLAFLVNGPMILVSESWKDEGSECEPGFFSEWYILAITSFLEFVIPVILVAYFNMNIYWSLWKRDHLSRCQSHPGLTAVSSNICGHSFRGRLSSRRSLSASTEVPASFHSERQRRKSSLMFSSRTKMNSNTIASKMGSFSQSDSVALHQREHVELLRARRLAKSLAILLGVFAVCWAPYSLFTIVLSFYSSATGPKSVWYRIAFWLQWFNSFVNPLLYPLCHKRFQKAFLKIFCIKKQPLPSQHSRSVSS

Structure (SMILES)	Kb [nM]
CNC1CN(c2nc(N)nc3c2OC[C@@H]([C@H](C)OC)N3)C1 [Example 3-5, (S)-7-((S)-1-Methoxyethyl)-4-(3-(methylamino)azetidin-1-yl)-7,8-dihydro-6H-pyrimido[5,4-b][1,4]oxazin-2-amine]	20
CC(C)[C@H]1CCOc2c(nc(N)nc2N2CC[C@@H](N)C2)N1 [Example 12-2, (R)-4-((R)-3-Aminopyrrolidin-1-yl)-8-isopropyl-6,7,8,9-tetrahydropyrimido[5,4-b][1,4]oxazepin-2-amine]	39.8
CN[C@@H]1CCN(c2nc(N)nc3c2OCC(C)N3)C1 (stereo partly drawn) [Example 1-2, 7-Methyl-4-((R)-3-(methylamino)pyrrolidin-1-yl)-7,8-dihydro-6H-pyrimido[5,4-b][1,4]oxazin-2-amine]	12.6
CCC1CNc2nc(N)nc(N3CC[C@@H](NC)C3)c2OC1 (stereo partly drawn) [Example 11-8, 7-Ethyl-4-((R)-3-(methylamino)pyrrolidin-1-yl)-6,7,8,9-tetrahydropyrimido[5,4-b][1,4]oxazepin-2-amine]	31.6
CC[C@@H]1COc2c(nc(N)nc2N2CC(NC)C2)N1 [Example 3-1, (R)-7-Ethyl-4-(3-(methylamino)azetidin-1-yl)-7,8-dihydro-6H-pyrimido[5,4-b][1,4]oxazin-2-amine]	2
CN[C@@H]1CCN(c2nc(N)nc3c2OCC(C2COC2)N3)C1 (stereo partly drawn) [Example 1-13, 4-((R)-3-(Methylamino)pyrrolidin-1-yl)-7-(oxetan-3-yl)-7,8-dihydro-6H-pyrimido[5,4-b][1,4]oxazin-2-amine]	31.6
CNC1CN(c2nc(N)nc3c2OC[C@@H](C(C)(C)OC)N3)C1 [Example 3-6, (S)-7-(2-Methoxypropan-2-yl)-4-(3-(methylamino)azetidin-1-yl)-7,8-dihydro-6H-pyrimido[5,4-b][1,4]oxazin-2-amine]	25.1
CO[C@@H](C)[C@@H]1COc2c(nc(N)nc2N2CC[C@@H](N)C2)N1 [Example 2-5, (S)-4-((R)-3-Aminopyrrolidin-1-yl)-7-((S)-1-methoxyethyl)-7,8-dihydro-6H-pyrimido[5,4-b][1,4]oxazin-2-amine]	79.4
CC[C@@H]1COc2c(nc(N)nc2N2CC[C@@H](N)C2)N1 [Example 2-1, (R)-4-((R)-3-Aminopyrrolidin-1-yl)-7-ethyl-7,8-dihydro-6H-pyrimido[5,4-b][1,4]oxazin-2-amine]	3.16
CN[C@@H]1CCN(c2nc(N)nc3c2OC[C@@H]([C@H](C)OC)N3)C1 [Example 1-11, (S)-7-((S)-1-Methoxyethyl)-4-((R)-3-(methylamino)pyrrolidin-1-yl)-7,8-dihydro-6H-pyrimido[5,4-b][1,4]oxazin-2-amine]	15.8
CN[C@@H]1CCN(c2nc(N)nc3c2OCC[C@H](C(C)C)N3)C1 [Example 11-6, (R)-8-Isopropyl-4-((R)-3-(methylamino)pyrrolidin-1-yl)-6,7,8,9-tetrahydropyrimido[5,4-b][1,4]oxazepin-2-amine]	12.6
CO[C@H](C)[C@@H]1COc2c(ncnc2N2CC[C@@H](N)C2)N1 [Example 8-2, (R)-1-((S)-7-((R)-1-Methoxyethyl)-7,8-dihydro-6H-pyrimido[5,4-b][1,4]oxazin-4-yl)pyrrolidin-3-amine]	631
CN[C@@H]1CCN(c2nc(N)nc3c2O[C@H](C)[C@H](C)N3)C1 [Example 1-19, (6R,7S)-6,7-Dimethyl-4-((R)-3-(methylamino)pyrrolidin-1-yl)-7,8-dihydro-6H-pyrimido[5,4-b][1,4]oxazin-2-amine]	79.4
CN[C@@H]1CCN(c2nc(N)nc3c2OCCCN3)C1 [Example 11-1, (R)-4-(3-(Methylamino)pyrrolidin-1-yl)-6,7,8,9-tetrahydropyrimido[5,4-b][1,4]oxazepin-2-amine]	200
CN[C@@H]1CCN(c2nc(N)nc3c2OCC(C(C)C)N3C)C1 (stereo partly drawn) [Example 1-20, 7-Isopropyl-8-methyl-4-((R)-3-(methylamino)pyrrolidin-1-yl)-7,8-dihydro-6H-pyrimido[5,4-b][1,4]oxazin-2-amine]	100

— patent publication US20240317775A1, “H4 Antagonist Compounds” (HEPTARES THERAPEUTICS LIMITED, priority 2020, published 2024)
